Measured values: patent publication US10624828B2, “Personal care compositions comprising a 2-pyridinol N-oxide material and an iron chelator” (The Procter & Gamble Company, priority 2017, dated 2020)
Marks after values point to notes of the source that are not given here.

Experiments:
[1] = NIST Standard Reference Database 46; cited from earlier work
[2] = test system: Staphylococcus aureus ATCC 6538; test: Minimum Inhibitory Concentration (MIC), broth dilution, visual pellet reading; format: cell-based; settings: S. aureus ATCC 6538, material alone, 37° C., 24 hours, average of triplicates
Description: The minimum inhibitory concentration (“MIC”) is the concentration (in ppm) of anti-bacterial agent that causes growth inhibition of bacteria so that no pellet is formed in the culture medium (as explained below in the method). […] Staphylococcus aureus ATCC 6538 is cultured onto tryptic soy agar (TSA) (Oxoid CM0131) over 24 hours. […] This gives 5×10^5 cfu/mL. […] The plate is then placed into a plastic sheet to minimize evaporation. The plate is then incubated at 37° C. for 24 hours. After 24 hours, the plate is removed and read visually to determine if a pellet is formed at the bottom of the well versus positive (without adding antibacterial material) and negative (without bacterial inoculum) growth controls. […] The experiment is carried out in triplicates and the MIC values are determined by the average of the results.

[3] = test system: Staphylococcus aureus ATCC 6538; test: Combinatorial Minimum Inhibitory Concentration (cMIC), OD 620 nm; settings: for MIC: minimum amount of chelant at which there is no bacteria growth: chelator alone (0 ppm piroctone olamine)
Description: A Combinatorial Minimum Inhibitory Concentration (“cMIC”) is used to determine the combinatorial effects of two chemicals on anti-bacterial activity in a tissue culture setting. Herein, the cMIC is a measure of the Minimum Inhibitory concentrations of 1-hydroxy-4-methyl-6-(2,4,4-trimethylpentyl)-2-pyridone monoethanolamine salt in combination with a chelant or vice versa.
Method Overview: • a. Each cMIC assay is run in triplicates. • b. Staphylococcus aureus ATCC 6538 is cultured on tryptic soy agar (TSA) (Oxoid CM0131) over 24 hours. The single colonies are then transferred into saline and mixed through vortex to obtain an optical density (OD) of 0.08-0.13 at 620 nm. 200 uL of this bacterial suspension is added to 19.8 mL of Mueller Hinton Broth (MHB) (BD 212322). This gives 5×10^5 cfu/mL. 100 uL of this bacteria-MHB mix is added to a 96 well flat-bottomed plate (TRP 92196). • c. 1-hydroxy-4-methyl-6-(2,4,4-trimethylpentyl)-2-pyridone monoethanolamine salt is pipetted into the wells in varying concentrations as indicated below. • d. Different Chelants are pipetted into the wells in varying concentrations, as indicated below. • e. The plates are then read using a spectrophotometer at 620 nm. This is the 0-hour reading. • f. The plates are incubated at 37° C. for 18 hours with shaking at 50 rpm. • g. The optical density of the plate is then measured using a spectrophotometer at 620 nm. • h. The OD value is calculated as subtraction of the readings between 18-hour and the 0-hour. • i. cMIC is determined as the minimal concentration of 1-hydroxy-4-methyl-6-(2,4,4-trimethylpentyl)-2-pyridone monoethanolamine salt in combination with a chelant or vice versa, corresponding to the well whose OD value is less than 10% of the OD value of the control well without 1-hydroxy-4-methyl-6-(2,4,4-trimethylpentyl)-2-pyridone monoethanolamine salt and chelator (full growth).

[4] = 3.125 ppm piroctone olamine combined with chelator (62.5 ppm DTPMP or 250 ppm DTPA), (MIC − cMIC)/MIC x 100%
[5] = 6.25 ppm piroctone olamine combined with chelator (15.6 ppm DTPMP or 125 ppm DTPA)
[6] = 6.25 ppm piroctone olamine combined with chelator (15.6 ppm DTPMP or 125 ppm DTPA), (MIC − cMIC)/MIC x 100%
[7] = in the presence of 3.125 ppm piroctone olamine
[8] = in the presence of 6.25 ppm piroctone olamine

Structure (SMILES): O=C(O)CC(O)(CC(=O)O)C(=O)O [Citric Acid]
- Log K1 (iron binding affinity) [1]: 11

Structure (SMILES): O=C(O)CN(CCN(CC(=O)O)CC(=O)O)CCN(CC(=O)O)CC(=O)O [DTPA, diethylenetriaminepentaacetic acid]
- MIC (ppm) [2]: 500 ppm
- Log K1 (iron binding affinity) [1]: 28
- Antibacterial Efficiency of piroctone olamine boosted by Chelator [3, 4]: 75%
- boost of antibacterial efficacy of piroctone olamine alone (fold) [3, 5]: 2 fold
- Antibacterial Efficiency of piroctone olamine boosted by Chelator [3, 6]: 50%
- MIC: minimum amount of chelant at which there is no bacteria growth [3]: 500^# ppm
- cMIC: minimum amount of chelant at which there is no bacteria growth in the presence of piroctone olamine [3, 7]: 250^## ppm
- cMIC: minimum amount of chelant at which there is no bacteria growth in the presence of piroctone olamine [3, 8]: 125^## ppm

Structure (SMILES): O=P(O)(O)CN(CCN(CP(=O)(O)O)CP(=O)(O)O)CCN(CP(=O)(O)O)CP(=O)(O)O [DTPMP, Diethylenetriaminepentakis (methylenephosphonic acid)]
- MIC (ppm) [2]: 250 ppm
- Log K1 (iron binding affinity) [1]: 23
- Antibacterial Efficiency of piroctone olamine boosted by Chelator [3, 4]: 75%
- boost of antibacterial efficacy of piroctone olamine alone (fold) ([3]; 3.125 ppm piroctone olamine combined with chelator (62.5 ppm DTPMP or 250 ppm chelator)): 4 fold
- boost of antibacterial efficacy of piroctone olamine alone (fold) [3, 5]: 2 fold
- Antibacterial Efficiency of piroctone olamine boosted by Chelator [3, 6]: 50%
- MIC: minimum amount of chelant at which there is no bacteria growth [3]: 250^# ppm
- cMIC: minimum amount of chelant at which there is no bacteria growth in the presence of piroctone olamine [3, 7]: 62.5^## ppm
- cMIC: minimum amount of chelant at which there is no bacteria growth in the presence of piroctone olamine [3, 8]: 15.6^## ppm

Structure (SMILES): CC(=O)N(O)CCCCCNC(=O)CCC(=O)N(O)CCCCCNC(=O)CCC(=O)N(O)CCCCCN [Desferrioxamine, reference compound]
- Log K1 (iron binding affinity) [1]: 31

Structure (SMILES): CC(C(=O)O)N(CC(=O)O)CC(=O)O (stereo not shown) [MGDA, Methylglycine diacetic acid]
- Log K1 (iron binding affinity) [1]: 16

Structure (SMILES): Cc1cc(CC(C)CC(C)(C)C)n(O)c(=O)c1.NCCO (stereo not shown) [reference compound]
- MIC ([2]; Staphylococcus aureus, ATCC6538): 12.5 µg/mL
- Antibacterial Efficiency of piroctone olamine boosted by Chelator ([3]; 12.5 ppm piroctone olamine, 0 ppm chelator): 0
- cMIC: minimum amount of piroctone olamine at which there is no bacteria growth in the presence of chelant ([3]; in the presence of 125 ppm DTPA): 6.25** ppm
- cMIC: minimum amount of piroctone olamine at which there is no bacteria growth in the presence of chelant ([3]; in the presence of 250 ppm DTPA): 3.125** ppm
- MICpiroctone olamine: minimum amount of the salt at which there is no bacteria growth ([3]; piroctone olamine alone (0 ppm chelator)): 12.5* ppm
